Legend:
HCC827 cells = test: Cell cycle distribution (Muse, PI), HCC827; assay type: cell-based, human; conditions: 48 h
Protocol: (§1) HaCaT cells were grown in DMEM, whereas HCC827 and HCC827GR cells were grown in RPMI 1640. All culture media were supplemented with FBS (10 %) and P/S (1 %), and the cells were grown at 37 °C in 5 % CO2.
Cell cycle distribution analysis was performed using a Muse™ Cell Cycle Kit (MCH100106, Merck Millipore, Billerica, MA) based on propidium iodide (PI) staining. The cells were collected, fixed in 70 % ethanol overnight at -20 °C, and then stained with a Muse™ Cell Cycle Reagent at RT for 30 min in the dark. The cell cycle distribution was measured using a Muse™ Cell Analyzer (Merck Millipore).

CDK4 = test: Immunoblot CDK4 in HCC827 and HCC827GR cells; assay type: cell-based, human; conditions: for CDK4 protein ratio: relative to DBG 0 nM = 1.00
Protocol: as §1
(§2) Cells were lysed in RIPA buffer, and protein concentration was determined using a Bio-Rad DC Protein Assay kit (Bio-Rad, Hercules, CA, USA). Protein samples from the cell lysates were resolved by sodium dodecyl sulfate-polyacrylamide gel electrophoresis and then transferred onto polyvinylidene fluoride membranes. The membranes were blocked with 3 % or 5 % skim milk and then incubated at 4 °C overnight with the indicated primary antibodies, followed by the corresponding horseradish peroxidase-conjugated secondary antibodies at RT for 2 h. Protein bands were visualized using western blotting luminol reagent solution and ImageQuant LAS 500 (GE Healthcare, Uppsala, Sweden). The density of the bands was quantified using ImageJ software (NIH, Bethesda, MD, USA).

[1] = tested on: cytochrome c (mitochondrial); test: Immunoblot mitochondrial cytochrome c in HCC827 and HCC827GR cells; assay type: cell-based, human; conditions: for cyto c (mitosol) protein Ratio: DBG 0 nM = 1.00
Protocol: as §2
The cells were suspended in plasma membrane extraction buffer [250 mM sucrose, 10 mM HEPES (pH 8.0), 10 mM KCl, 1.5 mM MgCl2• 6H2O, 1 mM EGTA, 1 mM EDTA, 0.1 mM PMSF, 0.01 mg/ml aprotinin, and 0.01 mg/ml leupeptin], and 0.1 % digitonin was added for vortexing (1 min). The supernatant was collected as the cytosolic fraction. The pellet was resuspended in plasma membrane extraction buffer containing 0.5 % Triton X-100. The lysates were centrifuged at 13,000 rpm for 30 min to separate the mitochondrial fraction.

HCC827GR cells = test: Soft agar anchorage-independent growth, HCC827GR; assay type: cell-based, human; conditions: 2 weeks
Protocol: The anchorage-independent cell growth assay was performed in 6-well plates with dual agar layers containing 0.6 % agar (lower layer) and 0.3 % agar (upper layer) supplemented with BME, 2 mM L-glutamine, 5 μg/ml gentamicin, and 10 % FBS. After 2 weeks of incubation, the number of colonies was assessed using a microscope (Leica, Wetzlar, Germany), and the mean colony area was analyzed using i-Solution ^TM software (Vancouver, BC, Canada).

Bcl-2 = test: Immunoblot Bcl-2 in HCC827 and HCC827GR cells; assay type: cell-based, human; conditions: for BCl-2 protein Ratio: DBG 0 nM = 1.00
Protocol: as §1, §2

CDK6 = test: Immunoblot CDK6 in HCC827 and HCC827GR cells; assay type: cell-based, human; conditions: for CDK6 protein ratio: relative to DBG 0 nM = 1.00
Protocol: as §1, §2

MET = molecular target: T1, MET (Homo sapiens, UniProt P08581); test: In vitro ADP-Glo kinase assay, MET; assay type: biochemical
T1 construct: purchased Promega
Protocol: Subsequently, each well was added with ADP-Glo reagent and incubated for another 40 min. After completion of the kinase reaction, each well was added with kinase activity detection reagent and then incubated for 30 min. Liquid was dispensed with I.DOT (Dispendix, Stuttgart, Germany). Luminescence was measured on a Centro LB 960 microplate luminometer (Berthold Technologies).

T1 sequence (P08581 25-1390): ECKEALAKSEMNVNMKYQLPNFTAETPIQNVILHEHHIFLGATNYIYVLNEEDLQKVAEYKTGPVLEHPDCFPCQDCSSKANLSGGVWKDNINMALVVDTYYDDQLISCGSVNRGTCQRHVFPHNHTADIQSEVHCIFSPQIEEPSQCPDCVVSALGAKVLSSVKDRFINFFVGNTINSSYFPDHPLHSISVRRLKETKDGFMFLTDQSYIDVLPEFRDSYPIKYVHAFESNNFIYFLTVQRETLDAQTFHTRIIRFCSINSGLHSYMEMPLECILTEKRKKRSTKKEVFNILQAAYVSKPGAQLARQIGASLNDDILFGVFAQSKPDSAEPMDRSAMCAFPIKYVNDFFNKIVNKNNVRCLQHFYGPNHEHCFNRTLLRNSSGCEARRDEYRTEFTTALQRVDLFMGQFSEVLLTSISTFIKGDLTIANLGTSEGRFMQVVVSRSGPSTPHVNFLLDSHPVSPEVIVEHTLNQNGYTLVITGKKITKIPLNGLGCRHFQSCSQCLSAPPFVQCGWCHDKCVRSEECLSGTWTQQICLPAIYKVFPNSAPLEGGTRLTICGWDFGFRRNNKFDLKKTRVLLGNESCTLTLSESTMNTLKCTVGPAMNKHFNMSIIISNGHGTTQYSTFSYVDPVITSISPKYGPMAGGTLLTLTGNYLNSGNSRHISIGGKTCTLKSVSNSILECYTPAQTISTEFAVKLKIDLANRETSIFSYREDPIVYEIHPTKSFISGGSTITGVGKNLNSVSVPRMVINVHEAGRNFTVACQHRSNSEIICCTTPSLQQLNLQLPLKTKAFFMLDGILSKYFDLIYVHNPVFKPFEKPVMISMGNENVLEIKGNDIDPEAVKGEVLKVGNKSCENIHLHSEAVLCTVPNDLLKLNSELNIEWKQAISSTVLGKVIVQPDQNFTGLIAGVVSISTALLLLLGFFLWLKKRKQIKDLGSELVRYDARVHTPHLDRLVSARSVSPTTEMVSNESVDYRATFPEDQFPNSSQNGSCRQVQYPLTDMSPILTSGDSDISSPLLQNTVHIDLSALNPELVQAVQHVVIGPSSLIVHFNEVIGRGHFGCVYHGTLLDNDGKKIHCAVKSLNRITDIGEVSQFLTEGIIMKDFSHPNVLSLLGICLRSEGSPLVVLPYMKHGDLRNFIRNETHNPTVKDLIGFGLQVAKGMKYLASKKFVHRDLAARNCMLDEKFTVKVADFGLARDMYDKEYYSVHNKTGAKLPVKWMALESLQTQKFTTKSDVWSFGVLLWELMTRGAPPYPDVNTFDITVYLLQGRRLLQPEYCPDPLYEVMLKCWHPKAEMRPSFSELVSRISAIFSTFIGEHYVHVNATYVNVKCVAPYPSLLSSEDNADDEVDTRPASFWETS

For COc1ccc(C[C@H]2C(=O)N[C@@H](C)C(=O)N(C)[C@H]3Cc4ccc(cc4)Oc4cc(ccc4O[C@@H]4O[C@H](CO)[C@@H](O)[C@H](O)[C@H]4O)C[C@@H](C(=O)N[C@H](C)C(=O)N[C@@H](C)C(=O)N2C)N(C)C3=O)cc1 [DBG, deoxybouvardin glucoside], the G0/G1 distribution (HCC827 cells; DBG 3 nM, mean of 3 samples) was 61.33, the G2/M distribution (HCC827 cells; DBG 3 nM, mean of 3 samples) was 31.20 and the S distribution (HCC827 cells; DBG 3 nM, mean of 3 samples) was 7.47. For the same molecule, the G0/G1 distribution (HCC827 cells; DBG 3 nM, sample 1) was 60.80, the G2/M distribution (HCC827 cells; DBG 3 nM, sample 1) was 31.60 and the S distribution (HCC827 cells; DBG 3 nM, sample 1) was 7.60. The G0/G1 distribution (HCC827 cells; DBG 3 nM, sample 2) was 61.70, the G2/M distribution (HCC827 cells; DBG 3 nM, sample 2) was 31.40 and the S distribution (HCC827 cells; DBG 3 nM, sample 2) was 6.90. For the same molecule, the G0/G1 distribution (HCC827 cells; DBG 3 nM, sample 3) was 61.50, the G2/M distribution (HCC827 cells; DBG 3 nM, sample 3) was 30.60 and the S distribution (HCC827 cells; DBG 3 nM, sample 3) was 7.90. The G0/G1 distribution (HCC827 cells; DBG 6 nM, mean of 3 samples) was 64.27, the G2/M distribution (HCC827 cells; DBG 6 nM, mean of 3 samples) was 28.30 and the S distribution (HCC827 cells; DBG 6 nM, mean of 3 samples) was 7.43. It also gave a G0/G1 distribution (HCC827 cells; DBG 6 nM, sample 1) of 65.20, a G2/M distribution (HCC827 cells; DBG 6 nM, sample 1) of 27.50 and a S distribution (HCC827 cells; DBG 6 nM, sample 1) of 7.30. It also gave a G0/G1 distribution (HCC827 cells; DBG 6 nM, sample 2) of 63.60, a G2/M distribution (HCC827 cells; DBG 6 nM, sample 2) of 28.30 and a S distribution (HCC827 cells; DBG 6 nM, sample 2) of 8.10. The G0/G1 distribution (HCC827 cells; DBG 6 nM, sample 3) was 64.00, the G2/M distribution (HCC827 cells; DBG 6 nM, sample 3) was 29.10 and the S distribution (HCC827 cells; DBG 6 nM, sample 3) was 6.90. For the same molecule, the G0/G1 distribution (HCC827 cells; DBG 12 nM, mean of 3 samples) was 74.37, the G2/M distribution (HCC827 cells; DBG 12 nM, mean of 3 samples) was 19.80 and the S distribution (HCC827 cells; DBG 12 nM, mean of 3 samples) was 5.83. The G0/G1 distribution (HCC827 cells; DBG 12 nM, sample 1) was 73.00, the G2/M distribution (HCC827 cells; DBG 12 nM, sample 1) was 21.00 and the S distribution (HCC827 cells; DBG 12 nM, sample 1) was 6.00. It also gave a G0/G1 distribution (HCC827 cells; DBG 12 nM, sample 2) of 75.10, a G2/M distribution (HCC827 cells; DBG 12 nM, sample 2) of 19.40 and a S distribution (HCC827 cells; DBG 12 nM, sample 2) of 5.50. The G0/G1 distribution (HCC827 cells; DBG 12 nM, sample 3) was 75.00, the G2/M distribution (HCC827 cells; DBG 12 nM, sample 3) was 19.00 and the S distribution (HCC827 cells; DBG 12 nM, sample 3) was 6.00. For the same molecule, the “level of CDKs (CDK4)” value (CDK4; DBG 3, 6, 12 nM, 48 h) was “significantly decreased”, the CDK4 protein/actin (CDK4; HCC827, DBG 3 nM, DBG 0 nM 0.59) was 0.35 and the CDK4 protein ratio (CDK4; HCC827, DBG 3 nM) was 0.58. For the same molecule, the CDK4 protein/actin (CDK4; HCC827, DBG 6 nM, DBG 0 nM 0.59) was 0.30, the CDK4 protein ratio (CDK4; HCC827, DBG 6 nM) was 0.50 and the CDK4 protein/actin (CDK4; HCC827, DBG 12 nM, DBG 0 nM 0.59) was 0.32. For the same molecule, the CDK4 protein ratio (CDK4; HCC827, DBG 12 nM) was 0.53, the CDK4 protein/actin (CDK4; HCC827GR, DBG 3 nM, DBG 0 nM 0.72) was 0.61 and the CDK4 protein ratio (CDK4; HCC827GR, DBG 3 nM) was 0.85. It also gave a CDK4 protein/actin (CDK4; HCC827GR, DBG 6 nM, DBG 0 nM 0.72) of 0.55, a CDK4 protein ratio (CDK4; HCC827GR, DBG 6 nM) of 0.77 and a CDK4 protein/actin (CDK4; HCC827GR, DBG 12 nM, DBG 0 nM 0.72) of 0.30. The CDK4 protein ratio (CDK4; HCC827GR, DBG 12 nM) was 0.42, the “cyto c (mitosol) cyto c/COX4/actin (A)” value ([1]; HCC827, DBG 3 nM, DBG 0 nM 119.45) was 66.38 and the “cyto c (mitosol) protein Ratio” value ([1]; HCC827, DBG 3 nM) was 0.56. For the same molecule, the “cyto c (mitosol) cyto c/COX4/actin (A)” value ([1]; HCC827, DBG 6 nM, DBG 0 nM 119.45) was 25.00, the “cyto c (mitosol) protein Ratio” value ([1]; HCC827, DBG 6 nM) was 0.21 and the “cyto c (mitosol) cyto c/COX4/actin (A)” value ([1]; HCC827, DBG 12 nM, DBG 0 nM 119.45) was 23.24. The “cyto c (mitosol) protein Ratio” value ([1]; HCC827, DBG 12 nM) was 0.19, the “cyto c (mitosol) cyto c/COX4/actin (A)” value ([1]; HCC827GR, DBG 3 nM, DBG 0 nM 168.86) was 137.25 and the “cyto c (mitosol) protein Ratio” value ([1]; HCC827GR, DBG 3 nM) was 0.81. The “cyto c (mitosol) cyto c/COX4/actin (A)” value ([1]; HCC827GR, DBG 6 nM, DBG 0 nM 168.86) was 47.89, the “cyto c (mitosol) protein Ratio” value ([1]; HCC827GR, DBG 6 nM) was 0.28 and the “cyto c (mitosol) cyto c/COX4/actin (A)” value ([1]; HCC827GR, DBG 12 nM, DBG 0 nM 168.86) was 7.39. For the same molecule, the “cyto c (mitosol) protein Ratio” value ([1]; HCC827GR, DBG 12 nM) was 0.0438, the “colony number, Control %” value (HCC827GR cells; DBG 3 nM) was 40.00% and the “colony size, Control %” value (HCC827GR cells; DBG 3 nM) was 77.33%. For the same molecule, the “colony number, Control %” value (HCC827GR cells; DBG 6 nM) was 13.10%, the “colony size, Control %” value (HCC827GR cells; DBG 6 nM) was 72.67% and the “colony number, Control %” value (HCC827GR cells; DBG 12 nM) was 0.00%. The “colony size, Control %” value (HCC827GR cells; DBG 12 nM) was 0.00%, the BCl-2 protein/actin (Bcl-2; HCC827, DBG 3 nM, DBG 0 nM 0.55) was 0.30 and the “BCl-2 protein Ratio” value (Bcl-2; HCC827, DBG 3 nM) was 0.55. For the same molecule, the BCl-2 protein/actin (Bcl-2; HCC827, DBG 6 nM, DBG 0 nM 0.55) was 0.21, the “BCl-2 protein Ratio” value (Bcl-2; HCC827, DBG 6 nM) was 0.39 and the BCl-2 protein/actin (Bcl-2; HCC827, DBG 12 nM, DBG 0 nM 0.55) was 0.19. For the same molecule, the “BCl-2 protein Ratio” value (Bcl-2; HCC827, DBG 12 nM) was 0.36, the BCl-2 protein/actin (Bcl-2; HCC827GR, DBG 3 nM, DBG 0 nM 0.66) was 0.59 and the “BCl-2 protein Ratio” value (Bcl-2; HCC827GR, DBG 3 nM) was 0.89. For the same molecule, the BCl-2 protein/actin (Bcl-2; HCC827GR, DBG 6 nM, DBG 0 nM 0.66) was 0.47, the “BCl-2 protein Ratio” value (Bcl-2; HCC827GR, DBG 6 nM) was 0.70 and the BCl-2 protein/actin (Bcl-2; HCC827GR, DBG 12 nM, DBG 0 nM 0.66) was 0.19. For the same molecule, the “BCl-2 protein Ratio” value (Bcl-2; HCC827GR, DBG 12 nM) was 0.29, the “level of Bcl-2” value (Bcl-2; NSCLC cells, DBG) was “downregulated” and the “level of CDKs (CDK6)” value (CDK6; DBG 3, 6, 12 nM, 48 h) was “significantly decreased”. For the same molecule, the CDK6 protein/actin (CDK6; HCC827, DBG 3 nM, DBG 0 nM 0.53) was 0.32, the CDK6 protein ratio (CDK6; HCC827, DBG 3 nM) was 0.60 and the CDK6 protein/actin (CDK6; HCC827, DBG 6 nM, DBG 0 nM 0.53) was 0.19. For the same molecule, the CDK6 protein ratio (CDK6; HCC827, DBG 6 nM) was 0.36, the CDK6 protein/actin (CDK6; HCC827, DBG 12 nM, DBG 0 nM 0.53) was 0.07 and the CDK6 protein ratio (CDK6; HCC827, DBG 12 nM) was 0.14. For the same molecule, the CDK6 protein/actin (CDK6; HCC827GR, DBG 3 nM, DBG 0 nM 0.70) was 0.55, the CDK6 protein ratio (CDK6; HCC827GR, DBG 3 nM) was 0.79 and the CDK6 protein/actin (CDK6; HCC827GR, DBG 6 nM, DBG 0 nM 0.70) was 0.47. For the same molecule, the CDK6 protein ratio (CDK6; HCC827GR, DBG 6 nM) was 0.67, the CDK6 protein/actin (CDK6; HCC827GR, DBG 12 nM, DBG 0 nM 0.70) was 0.30 and the CDK6 protein ratio (CDK6; HCC827GR, DBG 12 nM) was 0.43. For the same molecule, the IC50 (MET; ADP-Glo, MET 4 ng, RT, 60 min, luminescence, n=3) was 7.26 nM and the “kinase activity, in words” value (MET; DBG 3, 6, 12 nM) was “significantly inhibited”.

— paper PMC11579512, “Deoxybouvardin-glucoside induces apoptosis in non-small cell lung cancer cells by targeting EGFR/MET and AKT signaling pathway” (EXCLI Journal, 2024)
